In patent publication US20230364084A1, “METHODS FOR PREVENTING OR TREATING CONDITIONS RELATED TO PIKFYVE ACTIVITY” (The Regents of the University of Michigan, priority 2020, published 2023):

Experiments:
[1] = tested on: DU145 prostate cancer cells; experiment: cell viability screen with a 167-compound tyrosine kinase inhibitor library; assay type: cell-based, human
Description: FIG. 1: ESK981 inhibits the growth of diverse preclinical models of prostate cancer and is associated with a unique vacuolization morphology. • (a) The percentage viabilities of DU145 cells treated with 300 nM ESK981 or 167 other tyrosine kinase inhibitors when compared to a vehicle control. The top five most inhibitory compounds, as well as cabozantinib and crizotinib (highlighted in orange), and their respective targets are listed in the table. ESK981 is highlighted in red. • (b) Morphological differences of nuclear-restricted RFP-expressing DU145 cells treated with 300 nM ESK981, crizotinib, or cabozantinib. • (c) A long-term survival assay was used to calculate the half-maximum inhibitory concentration (IC50) after two weeks of incubation with the serial dilutions of indicated drugs. (Top) Long-term survival assays of VCaP prostate cancer cells exposed to MTKIs. (Bottom) IC50 of ESK981, crizotinib, and cabozantinib in a panel of prostate cancer cell lines. • (d) ESK981 was effective against enzalutamide (Enza)-resistant cell lines. […] Long-term survival (two weeks) was assayed by absorbance of crystal violet at OD590. • (e) VCaP-RFP cells were cultured for three days in ultralow attachment plates to form 3D tumor spheroids prior to the indicated drug treatments. […] Fluorescence intensity of 3D spheroids was measured by IncuCyte ZOOM. • (f) Castration-resistant VCaP tumors were established subcutaneously in castrated SCID mice, and mice were randomized into three groups, which received vehicle, 30 mg/kg, or 60 mg/kg ESK981 by oral gavage once per day for the indicated dosing schedule. Tumor volumes were monitored by a digital caliper twice per week. Data were analyzed by unpaired t test and presented as mean±SEM. *p<0.05; **p<0.01. • (g) AR^+ prostate patient-derived xenograft (PDX) MDA-PCa-146-12 were implanted subcutaneously in non-castrated SCID mice, and mice were randomized into two groups receiving either once daily vehicle or 30 mg/kg ESK981 for five days each week. […] Tumor volumes were monitored twice per week. […]

[2] = tested on: prostate cancer cell lines (VCaP, LNCaP, 22RV1, LNCaP-AR, PC3, DU145); experiment: long-term survival assay (14 days, crystal violet); assay type: cell-based, human; conditions: Homo sapiens, 336 h; range across AR positive (VCaP, LNCaP, 22RV1, LNCaP-AR) and AR-negative (PC3, DU145) cell lines, two weeks; read-out: growth inhibitory IC50
Description: Single cell suspensions were seeded into 96-well plates at a density of 1,000-30,000 cells per well. Long-term survival was determined after 14 days of drug incubation. Viable cells were fixed with 4% formaldehyde and subsequently stained with 1% crystal violet. IC50 was calculated using GraphPad Prism.

[3] = tested on: enzalutamide-resistant LNCaP-AR and CWR-R1 cells; experiment: long-term survival assay in enzalutamide-resistant cell lines; assay type: cell-based, human; conditions: LNCaP-AR and CWR-R1, long-term survival two weeks
Description: FIG. 1: ESK981 inhibits the growth of diverse preclinical models of prostate cancer and is associated with a unique vacuolization morphology. • (a) The percentage viabilities of DU145 cells treated with 300 nM ESK981 or 167 other tyrosine kinase inhibitors when compared to a vehicle control. The top five most inhibitory compounds, as well as cabozantinib and crizotinib (highlighted in orange), and their respective targets are listed in the table. […] Long-term survival (two weeks) was assayed by absorbance of crystal violet at OD590. • (e) VCaP-RFP cells were cultured for three days in ultralow attachment plates to form 3D tumor spheroids prior to the indicated drug treatments. […] Fluorescence intensity of 3D spheroids was measured by IncuCyte ZOOM. • (f) Castration-resistant VCaP tumors were established subcutaneously in castrated SCID mice, and mice were randomized into three groups, which received vehicle, 30 mg/kg, or 60 mg/kg ESK981 by oral gavage once per day for the indicated dosing schedule. Tumor volumes were monitored by a digital caliper twice per week. Data were analyzed by unpaired t test and presented as mean±SEM. *p<0.05; **p<0.01. • (g) AR^+ prostate patient-derived xenograft (PDX) MDA-PCa-146-12 were implanted subcutaneously in non-castrated SCID mice, and mice were randomized into two groups receiving either once daily vehicle or 30 mg/kg ESK981 for five days each week. […]

[4] = tested on: LC3-II in prostate cancer cell lines; experiment: LC3 lipidation western blot; assay type: cell-based, human
Description: Cell lysates were harvested in Pierce RIPA Lysis buffer (Thermo Scientific) containing protease inhibitor cocktail tablets (Roche) and phosphatase inhibitor cocktail (Millipore). Protein concentration was measured using the DC Protein Assay (Bio-Rad) to ensure an equal amount of protein was loaded onto a gel. The denatured lysates were separated on NuPage 4-12% Bis-Tris Midi Protein gels (Novex) and transferred to 0.45-μm PVDF transfer membrane (Immobilon) using a TransBlot Turbo dry transfer machine (Bio-Rad). The membrane was incubated in blocking buffer (5% non-fat dry milk, Tris-buffered saline with 0.1% Tween 20) for 1 hour at room temperature. The membrane was then incubated with the listed antibodies for 1 hour at room temperature, followed by overnight incubation at 4° C. Chemiluminescent detection using ECL Prime (Amersham) and HyBlot CL autoradiography film (Denville Scientific) was used to visualize the blots. Antibodies used in the immunoblotting assays were against ATG5 (Cat No. 12994S, Cell Signaling Technology), ATG7 (Cat No. 8558S, Cell Signaling Technology), ULK1 (Cat No. 8054S, Cell Signaling Technology), Beclin1 (Cat No. 4122S, Cell Signaling Technology), FIP200 (Cat No. 12436S, Cell Signaling Technology), LC3A/B (Cat No. 127415, Cell Signaling Technology), PIKfyve (Cat No. AF7885, R&D Systems), and GAPDH (Cat No. 3683S, Cell Signaling Technology).

[5] = target: VEGFR-2 (KDR) (Homo sapiens, UniProt P35968); conditions: cited from earlier work
Chain of VEGFR-2 (KDR) (P35968 20-1356, species assumed): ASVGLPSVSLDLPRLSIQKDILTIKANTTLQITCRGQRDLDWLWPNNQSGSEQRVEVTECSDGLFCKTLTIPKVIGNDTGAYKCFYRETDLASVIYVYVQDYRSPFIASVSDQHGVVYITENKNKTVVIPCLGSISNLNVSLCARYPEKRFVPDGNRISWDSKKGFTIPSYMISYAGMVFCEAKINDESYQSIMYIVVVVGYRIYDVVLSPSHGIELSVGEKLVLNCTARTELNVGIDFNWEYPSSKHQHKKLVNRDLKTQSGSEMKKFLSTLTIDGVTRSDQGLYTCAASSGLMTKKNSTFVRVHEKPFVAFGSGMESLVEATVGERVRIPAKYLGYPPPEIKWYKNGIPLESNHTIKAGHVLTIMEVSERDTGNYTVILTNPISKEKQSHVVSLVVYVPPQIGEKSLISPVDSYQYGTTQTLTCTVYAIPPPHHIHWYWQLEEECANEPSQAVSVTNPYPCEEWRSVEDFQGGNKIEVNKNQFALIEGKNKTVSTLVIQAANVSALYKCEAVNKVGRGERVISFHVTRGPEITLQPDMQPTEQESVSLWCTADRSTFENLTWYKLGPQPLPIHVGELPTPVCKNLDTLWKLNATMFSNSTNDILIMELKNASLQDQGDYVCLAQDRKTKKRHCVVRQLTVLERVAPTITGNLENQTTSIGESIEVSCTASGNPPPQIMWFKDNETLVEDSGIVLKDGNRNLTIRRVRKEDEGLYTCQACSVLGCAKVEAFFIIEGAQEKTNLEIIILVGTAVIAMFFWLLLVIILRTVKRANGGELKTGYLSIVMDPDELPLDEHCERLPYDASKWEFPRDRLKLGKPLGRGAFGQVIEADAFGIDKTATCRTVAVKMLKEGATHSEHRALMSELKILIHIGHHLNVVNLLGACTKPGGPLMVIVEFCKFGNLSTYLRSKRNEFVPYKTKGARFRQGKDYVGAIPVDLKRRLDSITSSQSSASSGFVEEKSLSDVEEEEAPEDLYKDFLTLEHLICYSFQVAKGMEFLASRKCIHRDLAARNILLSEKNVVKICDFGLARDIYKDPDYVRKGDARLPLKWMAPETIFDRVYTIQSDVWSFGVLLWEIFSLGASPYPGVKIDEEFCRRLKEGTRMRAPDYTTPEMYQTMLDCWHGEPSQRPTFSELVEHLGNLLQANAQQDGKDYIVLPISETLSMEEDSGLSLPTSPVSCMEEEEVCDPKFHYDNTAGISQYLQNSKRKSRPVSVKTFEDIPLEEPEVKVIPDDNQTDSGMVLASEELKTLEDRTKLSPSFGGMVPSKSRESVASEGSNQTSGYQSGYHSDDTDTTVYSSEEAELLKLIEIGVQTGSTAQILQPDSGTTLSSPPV

[6] = target: Tie-2 (TEK) (Homo sapiens, UniProt Q02763); conditions: cited from earlier work
Chain of Tie-2 (TEK) (Q02763 23-1124, species assumed): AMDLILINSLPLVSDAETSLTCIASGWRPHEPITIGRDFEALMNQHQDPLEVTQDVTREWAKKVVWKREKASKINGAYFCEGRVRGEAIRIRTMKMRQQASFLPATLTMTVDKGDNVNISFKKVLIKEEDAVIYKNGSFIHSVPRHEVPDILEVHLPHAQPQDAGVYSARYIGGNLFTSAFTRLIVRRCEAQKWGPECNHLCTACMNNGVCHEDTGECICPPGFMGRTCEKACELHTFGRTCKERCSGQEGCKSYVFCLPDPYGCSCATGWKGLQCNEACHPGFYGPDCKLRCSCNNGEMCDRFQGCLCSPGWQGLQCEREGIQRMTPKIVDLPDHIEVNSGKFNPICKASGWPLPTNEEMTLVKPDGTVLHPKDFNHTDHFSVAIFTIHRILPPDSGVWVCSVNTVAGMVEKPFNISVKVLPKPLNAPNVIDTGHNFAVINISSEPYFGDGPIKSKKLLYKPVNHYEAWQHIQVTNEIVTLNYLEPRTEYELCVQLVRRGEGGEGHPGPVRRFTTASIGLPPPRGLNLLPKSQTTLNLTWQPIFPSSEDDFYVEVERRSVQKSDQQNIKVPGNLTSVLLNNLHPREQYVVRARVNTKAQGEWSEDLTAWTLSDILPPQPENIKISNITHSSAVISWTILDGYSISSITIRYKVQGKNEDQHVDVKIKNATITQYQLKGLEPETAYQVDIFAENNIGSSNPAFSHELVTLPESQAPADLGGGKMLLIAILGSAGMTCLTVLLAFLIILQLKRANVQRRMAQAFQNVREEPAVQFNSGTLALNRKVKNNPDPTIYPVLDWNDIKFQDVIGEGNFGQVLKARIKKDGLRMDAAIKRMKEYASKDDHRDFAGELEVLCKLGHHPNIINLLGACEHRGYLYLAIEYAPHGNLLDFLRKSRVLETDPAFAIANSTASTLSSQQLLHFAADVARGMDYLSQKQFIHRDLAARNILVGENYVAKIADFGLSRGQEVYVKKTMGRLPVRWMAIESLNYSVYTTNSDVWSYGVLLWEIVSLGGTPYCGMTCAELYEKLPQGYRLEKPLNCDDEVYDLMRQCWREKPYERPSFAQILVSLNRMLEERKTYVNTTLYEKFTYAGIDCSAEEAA

## CC(C)Cn1c2ccc(Nc3ncccn3)cc2c2c3c(c4c(c21)CCc1nn(C)cc1-4)C(=O)NC3 [ESK981, 13-isobutyl-4-methyl-10-(pyrimidin-2-ylamino)-1,2,4,7,8,13-hexahydro-6H-indazolo[5,4-a]pyrrolo[3,4-c]carbazol-6-one]
[1]; 300 nM
  growth inhibition (cell viability): potent growth inhibition
[1]; among the 167 compounds tested
  cytoplasmic vacuolization morphology: uniquely triggered a cytoplasmic vacuolization morphology
[2]
  IC50: 35 to 192 nM
[3]
  efficacy in enzalutamide-resistant cell lines: remained efficacious
[4]; VCaP cells, 300 nM
  time to evidence of increase in LC3-II: within three hours
[4]; numerous prostate cancer cell lines, 24 hours, dose-dependent
  total level of LC3 lipidation: increase in the total level of LC3 lipidation
[5]
  activity against kinase: potent activity
[6]
  activity against kinase: potent activity
